Data as given in PMC7822874, “Chemoprotective antimalarials identified through quantitative high-throughput screening of Plasmodium blood and liver stage parasites” (Scientific Reports, 2021).

Assay: in vitro
Conditions: human, hepg2-a16-cd81egfp cells, % viability
Also: reference of the scale not given here.

| SMILES | viability at 3 µM |
| --- | --- |
| O=c1c2ccccc2nc(N/N=C/c2c(O)ccc3ccccc23)n1O [MLS000551780] | 34.1% |
| COc1ccc2nc(C)cc(NCc3cccc(C(F)(F)F)c3)c2c1 [MLS001174340] | 95.4% |
| CC1=C[C@@H](CNCc2cccnc2)[C@H](C(C)C)C[C@H]1Cc1nnc(-c2ccc([N+](=O)[O-])cc2)o1 [NCGC00394797] | 91.7% |
| Cc1cc(Nc2cccc(Cl)c2)nc(NCc2ccccc2)n1 [MLS000591844] | 80.9% |
| OC(CNC1CCCc2ccccc21)COc1c(Cl)cccc1Cl (stereo not drawn) [MLS000334339] | 100% |
| Cc1cc(Nc2ccc(C(C)C)cc2)n2ncnc2n1 [MLS000116597] | 96.1% |
| COc1cccc(NC(=O)CN(C)C(=O)c2oc3c(ccc4ccccc43)c2C)c1 [MLS001142056] | 101% |
| CCC(=O)Nc1cc(=O)[nH]c2nc(-c3ccc(Cl)cc3)nn12 [MLS000779210] | 92% |
| CCCCN(C(=O)c1cccc(S(=O)(=O)N(C)c2ccc(C)cc2)c1)c1c(N)n(CCCC)c(=O)[nH]c1=O [MLS001128188] | 91.7% |
| CCC1(OC(=O)CN)C(=O)OCc2c1cc1n(c2=O)Cc2cc3ccccc3nc2-1 (stereo not drawn) [MLS000766263] | 29.3% |
| Cc1ccc(S(=O)(=O)N2CCN(/C(S)=N/Cc3ccc4c(c3)OCO4)CC2)cc1 [MLS001002637] | 97.3% |
| COc1cc2nc(Nc3ccc(C)c(C)c3)nc(N)c2cc1OC [MLS001199689] | 102% |
| O=C(NCc1ccccc1)c1onc(CSc2nc3ccccc3[nH]2)c1C(=O)NCc1ccccc1 [MLS000561090] | 105% |
| Cc1ccc(-[n+]2c(-c3ccc(Cl)cc3)cn3c2CCC3)cc1 [MLS000780005] | 90.4% |
| N#Cc1cc(C#N)c(N2CCN(c3cccc(Cl)n3)CC2)nc1N [MLS000325470] | 99.6% |
| O=C(N/N=C(/c1ccccc1)c1cccnc1)c1cccc(F)c1 [MLS001224623] | 32% |
| CCN(CC)CCOC(=O)c1ccc(N/C=C(/C#N)c2nc(-c3ccc4c(c3)OCO4)cs2)cc1 [MLS000769346] | 100% |

| SMILES | viability at 3 µM |
| --- | --- |
| CCCN(C(=O)C(=O)Nc1ccc2nc3n(c(=O)c2c1)CCCCC3)c1ccc(OCC)cc1 [NCGC00114456] | 93.7% |
| COc1ccc(OC)c(-n2c(S)nnc2-c2ccc(O)cc2O)c1 [MLS000766628] | 104% |
| CC1CCN(c2ccc(C(=O)NCc3ccco3)cc2[N+](=O)[O-])CC1 [MLS000389854] | 91.2% |
| Cc1cc(C)n(-c2nc(NC(C)C)nc(NC(C)C)n2)n1 [MLS000068521] | 105% |
| Clc1ccccc1C(c1ccccc1)(c1ccccc1)n1ccnc1 [NCGC00015251] | 99.7% |
| CCCCOc1ccc(NC2=NC(N)=NC3(CCCCC3)N2)cc1 [MLS000109806] | 88.4% |
| CN([C@@H](Cc1ccc(OS(=O)(=O)c2cccc3cnccc23)cc1)C(=O)N1CCN(c2ccccc2)CC1)S(=O)(=O)c1cccc2cnccc12 [NCGC00162398] | 95.6% |
| C/C(=N\NC(=O)c1cccc(Br)c1)c1ccccn1 [MLS001232242] | 81.3% |
| COc1cccc(NC(=O)CN(C)C(=O)c2ccc(-c3cccc(C(F)(F)F)c3)o2)c1 [MLS001071804] | 90.3% |
| COc1cc(NC(=O)c2cc([N+](=O)[O-])ccc2NC(=O)CNC2CCCCC2)cc(OC)c1 [MLS000950380] | 109% |
| COc1ccc(Nc2cc(C)nc(NCc3ccccc3)n2)cc1 [MLS000768693] | 83% |
| Cc1ccc(Nc2nnc(SCC(=O)c3ccc(O)cc3O)s2)cc1 [MLS001176347] | 99.9% |
| Cc1cccc(Nc2cc(C)c3c(O)cccc3n2)c1C [MLS000586980] | 88.1% |
| Cc1cc(Nc2ccc(Br)c(C)c2)n2nc(C)nc2n1 [MLS000116638] | 87.3% |
| O=C(Nc1ccc(S(=O)(=O)N2CCOCC2)cc1)c1cc(-c2cc(Cl)ccc2O)n[nH]1 [MLS000778989] | 73.1% |
| Cc1cc(C)n(-c2nc(NC(C)(C)C)nc(NC(C)(C)C)n2)n1 [MLS000109787] | 106% |
